Experimental data as given in patent publication US20190106697A1, “Inhibition Of Lactate Transporters For Use In The Treatment Of Inflammatory Diseases” (Queen Mary University of London, priority 2014, published 2019).

Key:
Type in all cases: cell-based, mouse
activated CD4+ T-cells [1] = assay: In vitro chemokinesis of activated CD4+ T-cells towards CXCL10 (transwell); conditions: 10 mM lactic acid or sodium lactate, CXCL10 300 ng/ml
Description: (§1) T-cell isolation, in-vitro activation and subset enrichment: T-cells were isolated from C57BL/6 murine lymph nodes and activated for 3 to 5 days with plate bound anti-CD3 and anti-CD28 antibodies (BioLegend), and IL-2 (PeproTech). CD4+ and CD8+ subsets were enriched with commercially available CD4+ and CD8+ T-cell isolation kits according to the manufacturer's instructions (Easysep, Invitrogen) either prior or post activation according to experimental settings. Chemokinesis assays: Chemokinesis assays were performed in 5 μm transwell inlays. In some experiments, T-cells were pre-treated overnight with a number of drugs purchased from Calbiochem: Rapamycin (200 nM), 2-DG (1 mM), Metformin (2 mM). […] 3×10^6 lymphocytes were seeded in the upper transwell chamber; chemokines were added to the lower chamber: CXCL10 (300 ng/ml), CCL5 (50 ng/ml), CCL19/21 (200 ng/ml of each chemokine). Migrated T-cells were counted with a hemocytometer 2, 4 and 6 hours after seeding and % of migrated cells was calculated.

activated CD8+ T-cells [2] = assay: In vitro chemokinesis of activated CD8+ T-cells towards CXCL10 (transwell)
Description: as §1

activated CD4+ T-cells [3] = assay: CCL5-induced chemokinesis of activated CD4+ T-cells; conditions: 10 mM; CCL5 50 ng/ml
Description: as §1

activated CD8+ T-cells [4] = assay: Glucose uptake and flux with 2-NBDG / 6-NBDG in CD8+ T-cells; conditions: 2-NBDG and 6-NBDG probes
Experimental: Measurement of lactate, glycolysis, glucose uptake/flux and cell death: Lactate concentration was measured in the synovial fluid or peritoneal lavage using the Lactate assay Kit (Biovision), according to the manufacturer's instructions. Glycolytic metabolism was measured with a Seahorse XF24 Extracellular Flux Analyzer. Briefly, T-cells were grown in high glucose RPMI-1640 supplemented with 10% FCS. […] T-cell viability upon lactate or metabolic drug treatment was assessed by trypan blue exclusion assay.

CD8+ cytotoxic T-cells = assay: CTL cytotoxicity assay with allogeneic endothelial cells; conditions: 10 mM
Experimental: CTL differentiation and activity assay: Isolated CD8+ T-cells (balb/c) were incubated with CD3-depleted and mytomycin-C-eradicated allogeneic splenocytes (C57BL/6). […] Dead cells were counted using trypan blue exclusion assay 2, 4, 6 and 18 hours after the start of the assay.

Question: For `CC(O)C(=O)O` (stereo not shown) [lactic-acid], which “CXCL10-induced chemokinesis of activated CD4+ T-cells” value (activated CD4+ T-cells [1]) is on record?
Answer: Its value is “not vice versa”.

Question: And the “CXCL10-induced chemokinesis of activated CD4+ T-cells” value (activated CD4+ T-cells [1]; listed as lactic acid)?
Answer: The value was “not affected”.

Question: What about the “CXCL10-induced chemokinesis of activated CD8+ T-cells” value (activated CD8+ T-cells [2]; 10 mM lactic acid or sodium lactate, CXCL10 300 ng/ml) of the same compound?
Answer: Its value is “inhibited”.

Question: What about the “chemokinesis of CD8+ T-cells, culture media buffered to neutral pH” value (activated CD8+ T-cells [2]; lactic-acid with bicarbonate or HEPES to reach a neutral pH) of the same compound?
Answer: The value was “still impaired”.

Question: What about the “CCL5-induced migration of CD4+ T-cells” value (activated CD4+ T-cells [3]) of the same compound?
Answer: Its value is “not”.

Question: What about the “glucose uptake and flux through glycolysis in CD8+ T-cells” value (activated CD8+ T-cells [4]) of the same compound?
Answer: Its value is “vice versa”.

Question: What about the “cytolytic activity of CTLs” value (CD8+ cytotoxic T-cells) of the same compound?
Answer: The value was “inhibited”.
